Here are results for one compound from patent US20230355613A1, “METHODS FOR TREATING PANCREATIC DUCTAL ADENOCARCINOMA” (HEALTH RESEARCH, INC., priority 2022, published 2023).

Data set [1] concerns Panc1 cells. The data set is described as follows: RNA-seq of JTE-607 treated cells (APA, read-through, differential expression analysis). Type of data set: cell-based, human. Particulars: Panc1, H3F3A and H2AZ1 normalized counts. The text has this: mRNA regulation is distinct between knockdown and chemical inhibition of CPSF3. Because JTE-607 inhibits CPSF3 catalytic activity without inducing target degradation, it was sought to understand if the function of CPSF3 is distinct between knockdown and inhibition. As CPSF3 is an integral component of the polyadenylation complex and the histone cleavage complex (HCC), it was hypothesized that CPSF3 disruption would dysregulate both alternative polyadenylation (APA) and histone mRNA processing. To test this hypothesis, CPSF3 knockdown and JTE-607 treated Panc1 cells were subjected to RNA-sequencing (RNA-seq). […] In the CPSF3 knockdown cells, PolyAMiner-Bulk detected 85 significant DAGs, of which 43 genes underwent 3′UTR lengthening (PolyAIndex>0.5; Padj<0.05) and 42 genes underwent 3′UTR shortening (PolyAIndex <−0.5; Padj<0.05) (FIG. 3A). In the CPSF3 inhibition model, PolyAMiner-Bulk detected 174 significant DAGs, of which 138 underwent 3′UTR lengthening (PolyAIndex>0.5; Padj<0.05) and 36 genes underwent 3′UTR shortening (PolyAIndex <−0.5; Padj<0.05) (FIG. 3B). […]
JTE-607 inhibits expression of replication-dependent histones. JTE-607 induces global transcriptional read-through in Ewing's sarcoma cells. Therefore, it was asked whether JTE-607 would similarly induce global read-through in PDAC cells by applying the ARTDeco algorithm. […]

The test system of another data set is PancPat CAFs. The data set is described as follows: 72-hour dose-response cell viability assay (CellTiter-Glo). The class given is cell-based. The conditions noted are these: Fibroblast, PancPat CAFs human cancer associated fibroblasts. The text has this: (§1) PDAC cells are sensitive to chemical inhibition of CPSF3. CPSF3 was recently identified as the target for the small molecule JTE-607. JTE-607 is a prodrug that, when metabolized by the ester hydrolyzing enzyme carboxylesterase 1 (CES1), binds to CPSF3 and inhibits its catalytic activity, impairing the processing of newly synthesized mRNAs. As genetic depletion of CPSF3 attenuated PDAC cell proliferation (FIG. 1), it 2as hypothesized that pharmacologic inhibition of CPSF3 with JTE-607 could represent a novel therapeutic approach in PDAC. The sensitivity of multiple human pancreatic cell lines, both non-transformed and PDAC, to JTE-607 in a 72-hour dose-response cell viability assay was examined. […] To examine if sensitivity to CPSF3 inhibition was associated with proliferation rate, the relationship between cell line doubling time and JTE-607 sensitivity was assessed. […] Next, the effect of JTE-607 on cell proliferation by treating cells with increasing concentrations of JTE-607 and assessing cell viability in a time-dependent fashion (FIGS. 2C-2E) was determined. […] Finally, the effect of JTE-607 on colony formation in PDAC cell lines was tested. […] Therefore, JTE-607 selectively attenuates proliferation of PDAC cells over non-transformed pancreatic cells.
(§2) JTE-607 studies. For dose-response measurements, cells were seeded at a density of 1000 cells per well in a 96-well white plate. The next day, JTE-607 was titrated over a range of concentrations using the Tecan D300e Digital Dispenser and cell viability was measured 72 hours post drug titration using a CellTiter-Glo Luminescent Cell Viability Assay Kit (Promega). For cell proliferation experiments, cells were seeded at a density of 250 cells per well in a 96-well white plate. DMSO control or JTE-607 was dispensed at varying concentrations and proliferation was measured using CellTiter-Glo Assay at days 0, 2, 4 and 6. For clonogenicity experiments, cells were seeded at a concentration of 500 cells per well and treated with different concentrations of JTE-607. Cells were allowed to grow over a period of 11-14 days after which they were fixed in 10% formalin, stained with 0.2% Crystal Violet and images were obtained for analysis. Colony area was measured using ImageJ software. Data were normalized to DMSO control data points.
On the technique in general: ATP-based viability assays read luminescence as a measure of living cells.

The next data set has as its system C7 CAF. The data set is described as above. The class given is cell-based. The conditions noted are these: Fibroblast, C7 CAF human cancer associated fibroblasts.
Excerpt: as §1, §2

Another data set concerns HPDE cells. Described as above. Type of data set: cell-based. Particulars: Homo sapiens, HPDE non-transformed pancreatic epithelial cells.
Excerpt: as §1, §2

In the next data set the test system is HPNE cells. Described as above. Type of data set: cell-based. Particulars: Homo sapiens, HPNE non-transformed pancreatic epithelial cells.
Excerpt: as §1, §2

The subject of data set [2] is Panc1 cells. The data set is described as above. Type of data set: cell-based. Particulars: Homo sapiens, PANC-1, Panc1 PDAC cells.
Excerpt: as §1, §2

For data set [3] the following is noted: healthy human volunteers; cited from earlier work.

Entries after “also recorded” stand apart in the source; their conditions may differ.

For `CCOC(=O)[C@H](Cc1ccccc1)NC(=O)c1cc(Cl)c(OCCN2CCN(C)CC2)c(Cl)c1O` [JTE-607], the “expression of RI histones” value in the data set with Panc1 cells [1] is recorded as “not downregulated”. The IC50 (usually the concentration that gives 50% inhibition) was found to be 114 µM in the data set with PancPat CAFs; 70 µM in the data set on C7 CAF; 60.1 µM with HPDE cells; 130 µM in the data set on HPNE cells; 2.16 µM in the data set with Panc1 cells [2]. In addition, the adverse events entry in data set [3] was “no serious adverse effects; also recorded: no severe adverse events reported”.
